According to article PMC8145938, “Triphenilphosphonium Analogs of Chloramphenicol as Dual-Acting Antimicrobial and Antiproliferating Agents” (Antibiotics, 2021):

Legend:
B. subtilis cells = test: membrane potential by DiS-C3-(5) fluorescence; assay type: cell-based, Bacillus subtilis
From the text: Thus, we further examined the effect of CAM-Cn-TPP on the bacterial membrane potential of B. subtilis. In particular, the membrane potential of B. subtilis can be estimated from the fluorescence of the potential-sensitive dye, DiS-C3-(5), by measuring the changing fluorescence. The potential-dependent accumulation of the dye inside the bacterial cell causes quenching and leads to a decrease in fluorescence. Under the influence of substances that reduce the membrane potential, the dye is released and the fluorescence increases. […] Therefore, the action of CAM-Cn-TPP may have a double effect on bacterial cells and be based on the depolarization of the bacterial membrane by analogy with the mechanism of action of Cn-TPP [17].
The membrane potential of B. subtilis was estimated by measuring the fluorescence of the potential-dependent probe, DiS-C3-(5). B. subtilis from the overnight culture were seeded into a fresh LB medium, followed by growth for […], until reaching the optical density of 0.8 at 600 nm. Then, the bacteria were diluted 20-fold in a buffer containing 100 mM of KCl and 10 mM of Tris, pH 7.4. The fluorescence was measured at 670 nm (excitation at 630 nm) using a Fluorat-02-Panorama fluorimeter.

[1] = tested on: MDA-MB-231 and BT-549 TNBC-sensitive and chemoresistant cells; test: cancer cell proliferation / viability assay (MTT); assay type: cell-based; details: 3 days treatment
From the text: We recently provided in vivo [67] and in vitro [68] evidence that certain bactericidal antibiotics suppress tumor growth by inducing mitochondrial dysfunction. […] These cells differ from the corresponding parental cells and display a different response to the same microenvironmental stimuli, allowing them to reduce their proliferating rate and survive chemotherapeutic treatment. Here, we tested the abovementioned CAM-TPP derivatives on chemoresistant triple negative breast cancer (TNBC) cell models, as well as on corresponding CSC-like spheroid cells. We created several relevant models based on TNBC cell lines, particularly MDA-MB-231 and BT-549, to determine their resistance to cyclophosphamide. To create CSC-like cells, parental cells were resuspended in nonadherent conditions to form tumorspheres.
The MDA-MB-231 (RRID: CVCL_0062) and BT-549 (RRID: CVCL_1092) cell lines were purchased from ATCC and cultured in DMEM/F12 (Gibco, Life Technologies, 31330-038) supplemented with 10% FBS, 1% Pen-Strep, 1% Sodium Pyruvate, and 1% L-glutamine. Chemoresistant cell lines were established with continuous treatment for 6 months with the anticancer therapeutic agent, cyclophosphamide (Rcyclo), as previously described. These cell lines were authenticated using short tandem repeat (STR) profiling within the last three years. […] The relative numbers of tumourspheres per well were counted manually. […]
The survival assay was performed essentially as described earlier. […] The absorbance was measured at 570 nm in Bio Spec 1601, Shimadzu spectrometer. […] The results were expressed as the means ± SEM. The data were analyzed using the GraphPad Prism 7 PRIZM computer software under the license of the Statistical Department (Vall’ d Hebron Hospital, Barcelona, Spain).

[2] = tested on: ribosome stalling on trpL mRNA in a cell-free translation system; test: toeprinting (primer extension inhibition) assay on trpL mRNA; assay type: biochemical; details: trpL mRNA template, 30 μM compound
From the text: To investigate the mechanism of action of CAM-C10-TPP and CAM-C14-TPP in the translation process, a primer extension inhibition assay (toeprinting) was used. This method allows for the unambiguous identification of drug-induced ribosome stalling sites along the mRNA, with single-nucleotide precision. This technique is also used to determine the context-specificity of antibiotic action. For this experiment, trpL mRNAs were chosen as the template, as in the pDualrep2 reporter system. […] Compared to the results obtained previously for CAM-C4-TPP using rst1 and rst2 mRNA templates, more unambiguous results were obtained using a trpL mRNA template. The main drug-induced ribosome stalling sites are different for CHL and CAM-Cn-TPP, and there are also CAM-Cn-TPP-specific stalling positions.
The toeprinting assay was carried out using trpL mRNA as a template, as described in [73], and the reactions were preincubated for 5 min with 30 μM of the tested compound.

E. coli 70S ribosomes = tested on: E. coli 70S ribosomes; set-up: method as in PMID 33916420; details: displacement of BODIPY-ERY from 70S ribosomes; read-out: apparent dissociation constant (KDapp); cited from earlier work

## O=C(CCCC[P+](c1ccccc1)(c1ccccc1)c1ccccc1)N[C@H](CO)[C@H](O)c1ccc([N+](=O)[O-])cc1 [CAM-C4-TPP]
B. subtilis cells
  concentration at which the compound takes effect on membrane potential: ≥ 10 µM
[1]
  effect on proliferation of TNBC cell lines: but not CAM-C4-TPP, significantly reduced the proliferation of TNBC cell lines
[2]
  drug-induced ribosome stalling site: blocked the ribosome progression at Val6 (Figure 2D, red arrowhead) and slightly blocked it at Ile4
E. coli 70S ribosomes
  Kd: 610 ± 70 nM
